The values that follow come from patent publication US20200055839A1 (priority 2017, published 2020).

For the assay, the system named is NL-RLuc virus. The assay is described as follows: Inhibition of HIV replication (NL-RLuc virus, luciferase readout in MT-2 cells). The settings on record: Human immunodeficiency virus 1, MT2, 120 h, MT-2 cells infected with NL-RLuc virus, 5 days of incubation, 10% FBS, at least 2 experiments. Format: cell-based. From the text:
Inhibition of HIV Replication:
A recombinant NL-RLuc proviral clone was constructed in which a section of the nef gene form NL4-3 was replaced with the Renilla Luciferase gene. This virus is fully infectious and can undergo multiple cycles of replication in cell culture. In addition, the luciferous reporter provides a simple and easy method for quantitating the extent of virus growth and consequently, the antiviral activity of test compounds. The plasmid pNLRLuc contains the proviral NL-Rluc DNA cloned into pUC18 at the PvuII site. The NL-RLuc virus was prepared by transfection of 293T cells with the plasmid pNLRLuc. Transfections were performed using the LipofectAMINE PLUS kit form Invitrogen (Carlsbad, Calif.) according to the manufacturer and the virus generated was titered in MT-2 cells. For susceptibility analyses, the titrated virus was used to infect MT-2 cells in the presence of compound, and after 5 days of incubation, cells were processed and quantitated for virus growth by the amount of expressed luciferase. Assay media was RPMI 1640 supplemented with 10% heat inactivated fetal bovine serum (FBS), 100 units/ml penicillin G/100 units/ml streptomycin, 10 mM HEPES buffer pH 7.55 and 2 mM L-glutamine. The results form at least 2 experiments were used to calculate the EC50 values. Luciferase was quantitated using the Dual Luciferase kit form Promega (Madison, Wis.). Susceptibility of viruses to compounds was determined by incubation in the presence of serial dilutions of the compound. The 50% effective concentration (EC50) was calculated by using the exponential form of the median effect equation where (Fa)=1/[1+(ED50/drug conc.)^m](Johnson V A, Byington R T. Infectivity Assay. In Techniques in HIV Research. ed. Aldovini A, Walker B D. 71-76. New York: Stockton Press. 1990).

In the case of `COc1ccc(COc2ccc(-c3cnc(C)c([C@H](OC(C)(C)C)C(=O)O)c3N3CCC(C)(C)CC3)nc2)c(OC)c1` [Example 358, (2S)-2-(tert-butoxy)-2-{5-[(2,4-dimethoxyphenyl)methoxy]-4′-(4,4-dimethylpiperidin-1-yl)-6′-methyl-[2,3′-bipyridine]-5′-yl}acetic acid], the EC50 stood at 1.2 nM.
Compound `Cc1nc(C(=O)N2CCC(C)(C)CC2)c(-c2ccc(OCCc3ccc(F)cc3)cc2)c(N2CCC(C)(C)CC2)c1[C@H](OC(C)(C)C)C(=O)O` [Example 11, (S)-2-(tert-Butoxy)-2-(4-(4,4-dimethylpiperidin-1-yl)-6-(4,4-dimethylpiperidine-1-carbonyl)-5-(4-(4-fluorophenethoxy)phenyl)-2-methylpyridin-3-yl)acetic acid] returned a half-maximal effective concentration (EC50) of 4 nM.
`Cc1ncc(-c2cccc(F)c2)c(N2CCC(C)(C)CC2)c1[C@H](OC(C)(C)C)C(=O)O` [Example 133, (2S)-2-(tert-Butoxy)-2-[4-(4,4-dimethylpiperidin-1-yl)-5-(3-fluorophenyl)-2-methylpyridin-3-yl]acetic acid] returned an EC50 of 4 nM.
`CC1(C)CCN(c2c(-c3ccccn3)cnc(Cl)c2[C@H](OC(C)(C)C)C(=O)O)CC1` [Example 223, (2S)-2-(tert-Butoxy)-2-[6′-chloro-4′-(4,4-dimethylpiperidin-1-yl)-[2, 3′-bipyridine]-5′-yl]acetic acid]: a half-maximal response (EC50) required 15 nM.
The compound `Cc1ncc(-c2ccc([C@@H](O)CC(C)C)nc2)c(N2CCC(C)(C)CC2)c1[C@H](OC(C)(C)C)C(=O)O` [Example 432, (S)-2-tert-Butoxy-2-(4-(4,4-dimethylpiperidin-1-yl)-6′-((S)-1-hydroxy-3-methylbutyl)-6-methyl-3, 3′-bipyridin-5-yl)acetic acid] yielded a 50% effective concentration (EC50) of 32 nM.
`Cc1ncc(-c2ccc(OCCc3cccc(F)c3F)cn2)c(N2CCC(C)(C)CC2)c1[C@H](OC(C)(C)C)C(=O)O` [Example 329, (2S)-2-(tert-butoxy)-2-{5-[2-(2,3-difluorophenyl)ethoxy]-4′-(4,4-dimethylpiperidin-1-yl)-6′-methyl-[2,3′-bipyridine]-5′-yl}acetic acid] yielded a 50% effective concentration (EC50) of 0.5 nM. This EC50 is about 64-fold lower than that of the compound before.
Turning to `Cc1nc(Nc2cnn(C)c2)c(-c2ccc(OCCc3ccc(F)cc3)cc2)c(N2CCC(C)(C)CC2)c1[C@H](OC(C)(C)C)C(=O)O` [Example 87, (S)-2-(tert-Butoxy)-2-(4-(4,4-dimethylpiperidin-1-yl)-5-(4-(4-fluorophenethoxy)phenyl)-2-methyl-6-((1-methyl-H-pyrazol-4-yl)amino)pyridin-3-yl)acetic acid], the 50% effective concentration (EC50) worked out at 2 nM. This EC50 lies about 4-fold higher than the previous one.
In the case of `Cc1nc(N)c(-c2ccc(OCCc3ccc(F)cc3)c(F)c2F)c(N2CCC(C)(C)CC2)c1[C@H](OC(C)(C)C)C(=O)O` (single isomer, unassigned) [Example 70] it was 2 nM; in that of `Cc1ncc(-c2ccc(OCCc3cccc(F)c3)cn2)c(N2CCC(C)(C)CC2)c1[C@H](OC(C)(C)C)C(=O)O` [Example 304, (2S)-2-(tert-butoxy)-2-[4′-(4,4-dimethylpiperidin-1-yl)-5-[2-(3-fluorophenyl)ethoxy]-6′-methyl-[2,3′-bipyridine]-5′-yl]acetic acid], 0.5 nM.
The value for `Cc1nc(NCCc2c[nH]cn2)c(-c2ccc(OCCc3ccc(F)cc3)cc2)c(N2CCC(C)(C)CC2)c1[C@H](OC(C)(C)C)C(=O)O` [Example 32, (S)-2-(6-((2-(H-Imidazol-4-yl)ethyl)amino)-4-(4,4-dimethylpiperidin-1-yl)-5-(4-(4-fluorophenethoxy)phenyl)-2-methylpyridin-3-yl)-2-(tert-butoxy)acetic acid] was 5 nM; that for `Cc1ncc(-c2ccc(OCCc3c(Cl)cccc3Cl)cc2)c(N2CCC(C)(C)CC2)c1[C@H](OC(C)(C)C)C(=O)O` [Example 366, (2S)-2-(tert-butoxy)-2-(5-{4-[2-(2,6-dichlorophenyl)ethoxy]phenyl}-4-(4,4-dimethylpiperidin-1-yl)-2-methylpyridin-3-yl)acetic acid] was 5 nM; that for `Cc1ncc(-c2cccc(Cl)c2)c(N2CCC(C)(C)CC2)c1[C@H](OC(C)(C)C)C(=O)O` [Example 143, (2S)-2-(tert-Butoxy)-2-[5-(3-chlorophenyl)-4-(4,4-dimethylpiperidin-1-yl)-2-methylpyridin-3-yl]acetic acid] was 4 nM.
Turning to `Cc1ncc(-c2ccc(CCC(C)C)nc2)c(N2CCC(C)(C)CC2)c1[C@H](OC(C)(C)C)C(=O)O` [Example 420, (S)-2-(tert-Butoxy)-2-(4-(4,4-dimethylpiperidin-1-yl)-6′-isopentyl-6-methyl-[3, 3′-bipyridin]-5-yl)acetic acid], it took 13 nM to reach a half-maximal effect (EC50).
In the case of `Cc1cccc(Nc2nc(C)c([C@H](OC(C)(C)C)C(=O)O)c(N3CCC(C)(C)CC3)c2-c2ccc(OCCc3ccc(F)cc3)cc2)n1` [Example 80, (S)-2-(tert-Butoxy)-2-(4-(4,4-dimethylpiperidin-1-yl)-5-(4-(4-fluorophenethoxy)phenyl)-2-methyl-6-((6-methylpyridin-2-yl)amino)pyridin-3-yl)acetic acid] it was 2 nM; in that of `CCC(C)(C)O[C@H](C(=O)O)c1c(C)ncc(-c2ccc(OCCc3ccc(F)cc3)c(F)c2)c1N1CCC(C)(C)CC1` [Example 226, (S)-2-(4-(4,4-Dimethylpiperidin-1-yl)-5-(3-fluoro-4-(4-fluorophenethoxy)phenyl)-2-methylpyridin-3-yl)-2-(tert-pentyloxy)acetic acid], 5 nM; in that of `Cc1nc(C#N)c([C@H](OC(C)(C)C)C(=O)O)c(N2CCC(C)(C)CC2)c1-c1ccc(OCCc2ccc(F)cc2)cc1` [Example 5, (S)-2-(tert-Butoxy)-2-(2-cyano-4-(4,4-dimethylpiperidin-1-yl)-5-(4-(4-fluorophenethoxy)phenyl)-6-methylpyridin-3-yl)acetic acid], 7 nM.
The value for `Cc1nc(Nc2ccncn2)c(-c2ccc(OCCc3ccc(F)cc3)cc2)c(N2CCC(C)(C)CC2)c1[C@H](OC(C)(C)C)C(=O)O` [Example 88, (S)-2-(tert-Butoxy)-2-(4-(4,4-dimethylpiperidin-1-yl)-5-(4-(4-fluorophenethoxy)phenyl)-2-methyl-6-(pyrimidin-4-ylamino)pyridin-3-yl)acetic acid] was 0.5 nM; that for `COc1nc(C)c(-c2ccc(OCCc3ccc(F)cc3)cc2)c(N2CCC(C)(C)CC2)c1[C@H](OC(C)(C)C)C(=O)O` [Example 3, (S)-2-(tert-Butoxy)-2-(4-(4,4-dimethylpiperidin-1-yl)-5-(4-(4-fluorophenethoxy)phenyl)-2-methoxy-6-methylpyridin-3-yl)acetic acid] was 8 nM.
As for `Cc1ncc(-c2cnc(OCC(C)C)c(Cl)c2)c(N2CCC(C)(C)CC2)c1[C@H](OC(C)(C)C)C(=O)O` [Example 417, (S)-2-(tert-Butoxy)-2-(5′-chloro-4-(4,4-dimethylpiperidin-1-yl)-6′-isobutoxy-6-methyl-[3,3′-bipyridin]-5-yl)acetic acid], the EC50 turned out to be 12 nM.
In turn, `Cc1nc(Nc2ncccc2F)c(-c2ccc(OCCc3ccc(F)cc3)cc2)c(N2CCC(C)(C)CC2)c1[C@H](OC(C)(C)C)C(=O)O` [Example 82, (S)-2-(tert-Butoxy)-2-(4-(4,4-dimethylpiperidin-1-yl)-5-(4-(4-fluorophenethoxy)phenyl)-6-((3-fluoropyridin-2-yl)amino)-2-methylpyridin-3-yl)acetic acid] gave a half-maximal effective concentration (EC50) of 2 nM.
Turning to `COc1ccc(CCOc2ccc(-c3cnc(C)c([C@H](OC(C)(C)C)C(=O)O)c3N3CCC(C)(C)CC3)nc2)cc1F` [Example 330, (2S)-2-(tert-butoxy)-2-[4′-(4,4-dimethylpiperidin-1-yl)-5-[2-(3-fluoro-4-methoxyphenyl)ethoxy]-6′-methyl-[2,3′-bipyridine]-5′-yl]acetic acid], the midpoint of the response, the EC50, lay at 0.4 nM.
On to `Cc1ncc(-c2cnc(OCCc3c(F)cccc3F)c(F)c2)c(N2CCC(C)(C)CC2)c1[C@H](OC(C)(C)C)C(=O)O` [Example 393, (2S)-2-(tert-butoxy)-2-{6′-[2-(2,6-difluorophenyl)ethoxy]-4-(4,4-dimethylpiperidin-1-yl)-5′-fluoro-6-methyl-[3,3′-bipyridine]-5-yl}acetic acid], for which the concentration giving a half-maximal response (EC50) is 2 nM.
In the case of `Cc1ncc(-c2cnc(OCCc3ccccc3F)c(F)c2)c(N2CCC(C)(C)CC2)c1[C@H](OC(C)(C)C)C(=O)O` [Example 120, (S)-2-(tert-Butoxy)-2-(4-(4,4-dimethylpiperidin-1-yl)-5′-fluoro-6′-(2-fluorophenethoxy)-6-methyl-[3, 3′-bipyridin]-5-yl)acetic acid], the concentration for a half-maximal effect (EC50) came to 2 nM.
Compound `Cc1ncc(-c2ccc(OC(C)C)cn2)c(N2CCC(C)(C)CC2)c1[C@H](OC(C)(C)C)C(=O)O` [Example 314, (2S)-2-(tert-butoxy)-2-[4′-(4,4-dimethylpiperidin-1-yl)-6′-methyl-5-(propan-2-yloxy)-[2,3′-bipyridine]-5′-yl]acetic acid] showed a 50% effective concentration (EC50) of 5 nM.
